For test [1], the system named is total serum IgE. The test is described as follows: Total serum IgE, KLH/Ribi IgE-induction model in BALB/c mice. It is filed as in vivo. The settings on record: THC-treated B/c mice. On the procedure:
(§1) In in vivo IgE-induction models using OVA/Alum or KLH/Ribi, the role of GPR55, in cannabinoid effects on antibody production has been investigated. BALB/c (B/c), C57BL/6 (B6), or B6 CB2 deficient (CB2^−/−) mice were pretreated with THC or L-α-lysophosphatidylinositol (LPI) prior to injections with OVA/Alum or KLH/Ribi, followed by boosting with same antigens. The mice were then bled on various days after boosting and total serum IgE was determined.

Test [2] has as its system serum levels of total IgE. The test is described as follows: Total serum IgE by ELISA, OVA/ALUM sensitization and boost in C57BL/6 and CB2-/- mice. It is filed as in vivo, C57BL/6 (B6) and CB2-/- mice. As to conditions: for serum levels of total IgE: THC pretreatment. As to the method:
FIG. 4 is a graph illustrating that serum levels of total IgE were increased with THC pretreatment over C57BL/6 (B6) mice; CB2 deficient mice (CB2^−/−) over B6; and THC pretreatment CB2^−/− over B6 and THC/B6. SR141716A (SR1; CB1 antagonist) pretreatment of CB2^−/− had little effect on total IgE levels. The mice were treated OVA/ALUM following a boost of same antigen. The sera were collected at Day 5-6 after the boost and ELISAs were performed. Data represent serum from individual mice (4-9 mice/group+/−SEM). *=p≦0.05 from Normal; #=p≦0.05 from OVA/ALUM; ##=p<0.05 from THC/OVA/ALUM
as §1
In general terms: An ELISA detects its analyte on a solid surface through an enzyme-linked reagent.

In test [3] the test system is serum levels of total IgE. The test is described as follows: Total serum IgE by ELISA, OVA/ALUM sensitization and boost in BALB/c mice. It is filed as in vivo. As to conditions: for IgE levels: THC- or LPI-pretreated B/c mice, OVA/Alum. As to the method: as §1
Mice were pretreated with SR2/Gp1a, Gp1a, or not pretreated, and 18 hrs later were sensitized with OVA/ALUM followed by a boost with same antigen. The sera were collected 6 days after the antigen boost injection and ELISAs were performed for IgE. Data represent sera from 4-8 mice/group+/−SEM. *=p≦0.05 from Normal; #=p≦0.05 from OVA/ALUM or SR2/OVA/ALUM.

Test [4] deals with total serum IgE. Description: Total serum IgE, KLH/RIBI IgE-induction model in B6 and CB2-/- mice. It is filed as in vivo, C57BL/6 (B6) and CB2-/- mice. The settings on record: compared with OVA/ALUM. As to the method:
as §1

These results are taken from patent US9289421B2, “Methods and compositions for reducing serum levels of immunoglobulin E (IgE)” (priority 2011, dated 2016).

Entries after “also recorded” stand apart in the source; their conditions may differ.

Regarding `CCCCCc1cc(O)c2c(c1)OC(C)(C)[C@@H]1CCC(C)=C[C@@H]21` [THC, Δ^9-tetrahydrocannabinol], the figures for the IgE levels entry (with total serum IgE [1]; in test [3]; with total serum IgE [4]) were “elevated”, “elevated” and “increased IgE levels greater than OVA/ALUM”, respectively. Also, the “serum levels of total IgE” value in test [2] (C57BL/6 (B6) mice, OVA/ALUM, sera Day 5-6 after boost) is given as “increased”; in test [2] (CB2-/- mice, OVA/ALUM, vs B6 and THC/B6) it was “increased; also recorded: augmented this effect”.
Consider `Cc1ccc2c(c1)Cc1c(C(=O)NN3CCCCC3)nn(-c3ccc(Cl)cc3Cl)c1-2` [Gp1a, N-(Piperidin-1-yl)-1-(2,4-dichlorophenyl)-1,4-dihydro-6-methylindeno[1,2-c]pyrazole-3-carboxamide], for which the “serum levels of total IgE” value in test [3] (BALB/c mice, pretreated 18 hrs before OVA/ALUM, sera 6 days after boost) was “attenuates; also recorded: caused a decrease in IgE”.
For `Cc1c(C(=O)NN2CCCCC2)nn(-c2ccc(Cl)cc2Cl)c1-c1ccc(Cl)cc1` [SR141716A], the IgE response entry in test [2] (B6 and CB2-/- mice, CB1 antagonist given prior to THC dosing) is given as “only slightly elevated”. For the same compound, in test [2] (CB2-/- mice, SR1 pretreatment, OVA/ALUM), the “total IgE levels” value is on record as “little effect”.
On to L-α-lysophosphatidylinositol [LPI], for which the IgE levels entry in test [3] is “enhanced”.
As for `Cc1ccc(Cn2nc(C(=O)N[C@@H]3C(C)(C)[C@@H]4CC[C@@]3(C)C4)cc2-c2ccc(Cl)c(C)c2)cc1` [SR144528, 5-(4-chloro-3-methylphenyl)-1-[(4-methylphenyl)methyl]-N-[(1S,2S,4R)-1,3,3-trimethylbicyclo[2.2.1]hept-2-yl]-1H-pyrazole-3-carboxamide], the “effect on the Gp1a attenuation of serum total IgE” value in test [3] (BALB/c mice, co-treatment with Gp1a (SR2/Gp1a), OVA/ALUM) is given as “reversed; also recorded: reverses the Gp1a effect”.
